How the values were obtained:
[1] = DRUGMATRIX: Imidazoline I2, Central radioligand binding (ligand: [3H] Idazoxan); format: cell membranes, Rattus norvegicus, Wistar, Cerebral cortex, Membrane; conditions: Not Active = under 50% inhibition at 10 µM
[2] = target: T1, 5-hydroxytryptamine receptor 1A (Rattus norvegicus, UniProt P19327); format: cell membranes, CHO-K1, Membrane; also: in other assays of this panel Not Active means under 50% inhibition at 10 µM
T1 sequence (P19327 whole entry): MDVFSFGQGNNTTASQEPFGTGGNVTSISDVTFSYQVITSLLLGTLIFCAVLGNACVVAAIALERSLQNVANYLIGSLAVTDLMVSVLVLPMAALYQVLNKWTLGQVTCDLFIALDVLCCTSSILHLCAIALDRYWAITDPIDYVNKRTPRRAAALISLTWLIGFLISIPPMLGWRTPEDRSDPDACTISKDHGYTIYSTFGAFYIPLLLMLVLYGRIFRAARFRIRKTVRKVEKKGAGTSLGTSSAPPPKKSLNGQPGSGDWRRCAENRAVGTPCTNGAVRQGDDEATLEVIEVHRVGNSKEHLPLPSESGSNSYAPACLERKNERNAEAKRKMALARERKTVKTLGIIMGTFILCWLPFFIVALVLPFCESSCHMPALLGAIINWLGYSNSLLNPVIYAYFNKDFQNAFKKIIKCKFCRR

[3] = target: Receptor tyrosine-protein kinase erbB-2 (Homo sapiens, UniProt P04626); format: cell-based; conditions: insect cells;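 also: inhibition of HER2 kinase enzyme activity, measured with Poly(Glu:Tyr) as the phosphorylation substrate; in other assays of this panel Not Active means under 50% inhibition at 10 µM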
[4] = target: Matrix metalloproteinase-9 (Homo sapiens, UniProt P14780); format: cell-based;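 also: inhibition of isolated MMP-9 enzyme activity toward a synthetic peptide substrate, from the DrugMatrix protease screening panel; in other assays of this panel Not Active means under 50% inhibition at 10 µM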
Sequence of Matrix metalloproteinase-9 (P14780 whole entry): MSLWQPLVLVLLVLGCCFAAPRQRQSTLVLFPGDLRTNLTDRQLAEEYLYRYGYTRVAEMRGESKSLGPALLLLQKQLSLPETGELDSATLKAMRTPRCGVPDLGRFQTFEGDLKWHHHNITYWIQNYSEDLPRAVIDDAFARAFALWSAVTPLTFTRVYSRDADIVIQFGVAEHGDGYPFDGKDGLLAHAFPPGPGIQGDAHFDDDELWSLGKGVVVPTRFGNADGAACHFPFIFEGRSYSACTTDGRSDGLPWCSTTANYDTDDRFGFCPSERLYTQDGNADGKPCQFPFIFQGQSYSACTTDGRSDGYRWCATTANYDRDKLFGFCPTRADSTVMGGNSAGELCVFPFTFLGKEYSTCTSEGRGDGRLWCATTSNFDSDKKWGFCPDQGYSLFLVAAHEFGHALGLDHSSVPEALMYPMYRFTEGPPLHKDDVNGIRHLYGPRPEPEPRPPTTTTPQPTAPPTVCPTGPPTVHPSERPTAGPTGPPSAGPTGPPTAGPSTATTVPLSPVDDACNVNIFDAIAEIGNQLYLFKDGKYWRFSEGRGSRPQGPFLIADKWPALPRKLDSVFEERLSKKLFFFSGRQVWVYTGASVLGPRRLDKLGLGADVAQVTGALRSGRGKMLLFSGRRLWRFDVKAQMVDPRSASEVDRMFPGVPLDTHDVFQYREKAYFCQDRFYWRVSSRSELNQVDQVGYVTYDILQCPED

[5] = DRUGMATRIX: Sigma2 radioligand binding (ligand: [3H] Ifenprodil); format: cell membranes, Rattus norvegicus, Wistar, Brain, Membrane; conditions: Not Active = under 50% inhibition at 10 µM
[6] = target: Tyrosine-protein kinase Lck (Homo sapiens, UniProt P06239); assay: DRUGMATRIX: Protein Tyrosine Kinase, LCK enzyme inhibition (substrate: Poly(Glu:Tyr)); format: cell-based, Insect cells; conditions: insect cells; Not Active = under 50% inhibition at 10 µM
Sequence of Tyrosine-protein kinase Lck (P06239 whole entry): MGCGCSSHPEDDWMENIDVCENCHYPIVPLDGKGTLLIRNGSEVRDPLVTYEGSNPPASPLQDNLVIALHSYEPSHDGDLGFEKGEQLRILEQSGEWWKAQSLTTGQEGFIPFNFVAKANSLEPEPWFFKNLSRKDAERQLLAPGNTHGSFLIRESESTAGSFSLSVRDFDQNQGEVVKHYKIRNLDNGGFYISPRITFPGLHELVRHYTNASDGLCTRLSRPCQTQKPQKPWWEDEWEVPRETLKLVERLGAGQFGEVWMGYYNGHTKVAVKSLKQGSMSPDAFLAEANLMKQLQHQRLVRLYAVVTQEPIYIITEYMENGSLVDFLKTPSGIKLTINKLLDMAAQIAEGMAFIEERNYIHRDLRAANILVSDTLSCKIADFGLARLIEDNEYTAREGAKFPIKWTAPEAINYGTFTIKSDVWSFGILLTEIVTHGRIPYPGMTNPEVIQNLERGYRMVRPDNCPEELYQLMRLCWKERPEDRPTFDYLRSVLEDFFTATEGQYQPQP

Molecule | IC50 [1] | Ki [1] | IC50 ([2]; cho-k1) | IC50 [3] | IC50 [4] | IC50 [5] | Ki [5] | IC50 [6] | IC50 ([1]; read-out: IC50) [nM] | Ki ([1]; read-out: Ki) [nM] | Ki ([2]; cho-k1) | Ki [3] | Ki [4] | Ki [6] | IC50 ([2]; read-out: IC50) [nM] | Ki ([2]; read-out: Ki) [nM]
Cl.NC[C@H]1CC[C@H](C(=O)Oc2ccc(CCC(=O)O)cc2)CC1 [CETRAXATE HYDROCHLORIDE] | Not Active | Not Active | Not Active | Not Active | Not Active | Not Active | Not Active | Not Active |  |  |  |  |  |  |  | 
Nc1nc(N)c2nc(CNc3ccc(C(=O)N[C@@H](CCC(=O)O)C(=O)O)cc3)cnc2n1 [AMINOPTERIN] | Not Active | Not Active | Not Active | Not Active | Not Active | Not Active | Not Active | Not Active |  |  |  |  |  |  |  | 
NC(=O)NC(=O)Cc1ccccc1 [PHENACEMIDE] | Not Active | Not Active | Not Active | Not Active | Not Active | Not Active | Not Active | Not Active |  |  |  |  |  |  |  | 
C[N+](C)(C)CCOC(N)=O.[Cl-] [CARBACHOL] | Not Active | Not Active | Not Active | Not Active | Not Active | Not Active | Not Active | Not Active |  |  |  |  |  |  |  | 
O=C1c2ccccc2C(=O)C1c1ccccc1 [PHENINDIONE] | Not Active | Not Active | Not Active | Not Active | Not Active | Not Active | Not Active | Not Active |  |  |  |  |  |  |  | 
CC(C)NCC(O)COc1ccc(CC(N)=O)cc1 (stereo not drawn) [ATENOLOL] | Not Active | Not Active | Not Active | Not Active | Not Active | Not Active | Not Active | Not Active |  |  |  |  |  |  |  | 
OC[C@H]1O[C@@H]2O[C@H]3[C@H](O)[C@@H](O)[C@@H](O[C@H]4[C@H](O)[C@@H](O)[C@@H](O[C@H]5[C@H](O)[C@@H](O)[C@@H](O[C@H]6[C@H](O)[C@@H](O)[C@@H](O[C@H]7[C@H](O)[C@@H](O)[C@@H](O[C@H]8[C@H](O)[C@@H](O)[C@@H](O[C@H]1[C@H](O)[C@H]2O)O[C@@H]8CO)O[C@@H]7CO)O[C@@H]6CO)O[C@@H]5CO)O[C@@H]4CO)O[C@@H]3CO [BETADEX] | Not Active | Not Active | Not Active | Not Active | Not Active | Not Active | Not Active | Not Active |  |  |  |  |  |  |  | 
COc1ccc(Cl)cc1C(=O)NCCc1ccc(S(=O)(=O)NC(=O)NC2CCCCC2)cc1 [GLYBURIDE] | Not Active | Not Active | Not Active | Not Active | Not Active | Not Active | Not Active | Not Active |  |  |  |  |  |  |  | 
CCN1CCN(C(=O)N[C@@H](C(=O)N[C@@H]2C(=O)N3[C@@H]2SC(C)(C)[C@@H]3C(=O)O)c2ccccc2)C(=O)C1=O [PIPERACILLIN] | Not Active | Not Active | Not Active | Not Active | Not Active | Not Active | Not Active | Not Active |  |  |  |  |  |  |  | 
CNC[C@H](O)c1ccc(O)c(O)c1 [EPINEPHRINE] |  |  | Not Active | Not Active | Not Active | Not Active | Not Active | Not Active | 232 | 154 |  |  |  |  |  | 
CCC1(c2ccccc2)C(=O)NC(=O)NC1=O [PHENOBARBITAL] | Not Active | Not Active | Not Active | Not Active | Not Active | Not Active | Not Active | Not Active |  |  |  |  |  |  |  | 
CC1(COc2ccc(CC3SC(=O)NC3=O)cc2)CCCCC1 (stereo not drawn) [CIGLITAZONE] | Not Active | Not Active | Not Active | Not Active | Not Active | Not Active | Not Active | Not Active |  |  |  |  |  |  |  | 
O=C(O)CNCP(=O)(O)O [GLYPHOSATE] | Not Active | Not Active | Not Active | Not Active | Not Active | Not Active | Not Active | Not Active |  |  |  |  |  |  |  | 
OC[C@H]1O[C@@H]2O[C@H]3[C@H](O)[C@@H](O)[C@@H](O[C@H]4[C@H](O)[C@@H](O)[C@@H](O[C@H]5[C@H](O)[C@@H](O)[C@@H](O[C@H]6[C@H](O)[C@@H](O)[C@@H](O[C@H]7[C@H](O)[C@@H](O)[C@@H](O[C@H]1[C@H](O)[C@H]2O)O[C@@H]7CO)O[C@@H]6CO)O[C@@H]5CO)O[C@@H]4CO)O[C@@H]3CO [ALFADEX] | Not Active | Not Active | Not Active | Not Active | Not Active | Not Active | Not Active | Not Active |  |  |  |  |  |  |  | 
Nc1nc(F)nc2c1ncn2[C@@H]1O[C@H](CO)[C@@H](O)[C@@H]1O [FLUDARABINE] | Not Active | Not Active | Not Active | Not Active | Not Active | Not Active | Not Active | Not Active |  |  |  |  |  |  |  | 
O=C(O)CO [GLYCOLIC ACID] | Not Active | Not Active | Not Active | Not Active | Not Active | Not Active | Not Active | Not Active |  |  |  |  |  |  |  | 
O=C(NCCN1CCOCC1)c1ccc(Cl)cc1 [MOCLOBEMIDE] | Not Active | Not Active | Not Active | Not Active | Not Active | Not Active | Not Active | Not Active |  |  |  |  |  |  |  | 
CARBOXYMETHYLCELLULOSE | Not Active | Not Active | Not Active | Not Active | Not Active | Not Active | Not Active | Not Active |  |  | Not Active | Not Active | Not Active | Not Active |  | 
COc1ccccc1OCCNCC(O)COc1cccc2[nH]c3ccccc3c12 (stereo not drawn) [CARVEDILOL] |  |  |  | Not Active | Not Active | Not Active | Not Active | Not Active | 1920 | 1280 |  |  |  |  | 5.84 | 3.34
NC(N)=Nc1nc(CSCCC(N)=NS(N)(=O)=O)cs1 [FAMOTIDINE] | Not Active | Not Active | Not Active | Not Active | Not Active | Not Active | Not Active | Not Active |  |  |  |  |  |  |  | 
COc1ccc(C[C@H](N)C(=O)N[C@H]2[C@@H](O)[C@H](n3cnc4c(N(C)C)ncnc43)O[C@@H]2CO)cc1 [PUROMYCIN] | Not Active | Not Active | Not Active | Not Active | Not Active | Not Active | Not Active | Not Active |  |  |  |  |  |  |  | 

Reference: ChEMBL document CHEMBL1909046, “DrugMatrix in vitro pharmacology data”
